Tests used:
Bortezomib = compound: CC(C)C[C@H](NC(=O)[C@H](Cc1ccccc1)NC(=O)c1cnccn1)B(O)O [Bortezomib]; experiment: relative viability (nuclei count vs DMSO), 5 days (fraction); higher = more cells survive
In short: (§1)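 Acceptance criteria were a control CV below 25% and at least one doubling per plate. Lung cancer cell lines in 1536-well plates got five library-drug doses (not always all listed) √10 apart by pinning and were left 5 days with no medium change. Viability divides treated-well nuclei by vehicle-well nuclei and is the median across plates. Nuclei were counted by MetaXpress from 4× Hoechst images.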

Obatoclax = compound: COC1=CC(c2cc3ccccc3[nH]2)=N/C1=C\c1[nH]c(C)cc1C [Obatoclax]; experiment: as above
In short: as §1

Cell Line	relative viability (Bortezomib; 0.0002 µM)	relative viability (Bortezomib; 0.000632 µM)	relative viability (Bortezomib; 0.002 µM)	relative viability (Bortezomib; 0.002 µM, anchor plate)	relative viability (Bortezomib; 0.006325 µM)	relative viability (Bortezomib; 0.02 µM)	relative viability (Obatoclax; 0.01 µM)	relative viability (Obatoclax; 0.03162 µM)	relative viability (Obatoclax; 0.1 µM)	relative viability (Obatoclax; 0.3162 µM)	relative viability (Obatoclax; 1 µM)
201T	0.98	0.953	0.959	1.09	0.854	0.351	0.965	0.909	0.95	1.02	1.05
A549	0.914	0.981	0.939		0.0802	0.0522	0.987	0.942	0.92	0.922	0.575
A-427	0.841	0.905	1.05	0.998	0.233	0.169	0.968	0.972	0.86	0.954	0.719
ABC-1	0.779	0.566	0.271	0.321	0.216	0.242	1.05	0.971	0.753	0.828	0.448
BEN	0.91	0.991	0.954	0.843	0.704	0.274	1.02	0.821	0.727	0.922	0.953
CAL-12T	0.93	0.971	0.957	1.03	0.49	0.155	0.995	0.955	1	0.483	0.328
COR-L23	0.97	0.948	0.964	0.971	0.0694	0.071	1.01	1.07	0.945	0.375	0.27
COR-L 105	0.855	0.936	0.797	0.931	0.292	0.314	0.884	1.08	0.992	0.69	0.436
Calu-6	0.998	0.965	0.974	0.961	0.118	0.0868	1	0.994	0.963	0.943	0.488
ChaGo-K-1	0.993	0.814	1.01	1.08	0.594	0.213	0.997	0.829	1.01	0.931	1.06
EBC-1	0.993	1	0.417	0.576	0.0892	0.0983	0.923	0.958	0.924	0.87	0.338
EKVX	0.934	0.96	0.987	1.04	0.669	0.124	1.07	0.891	0.905	0.982	0.918
EMC-BAC-2	0.938	0.961	0.999	1.11	0.543	0.2	0.973	0.957	0.74	0.96	0.819
EPLC-272H	0.8	0.652	0.871	0.902	0.66	0.105	0.99	0.924	0.96	0.675	0.339
H3255	0.928	1.06	0.951	0.816	0.274	0.291	0.931	0.926	0.896	1	0.959
HARA	0.937	0.888	0.902	1.11	0.374	0.0946	0.947	0.956	1.01	0.908	0.827
HCC-15	0.909	1.07	0.996	1.01	0.549	0.0945	0.975	0.948	0.842	1.05	0.816
HCC-44	0.95	0.968	0.987	0.895	0.869	0.173	1.01	0.953	0.827	0.929	0.755
HCC-78	0.874	0.901	0.815	0.52	0.512	0.329	1.09	0.866	0.891	0.771	1.02
HCC-366	1.03	0.974	1.05	1.02	1.01	0.045	1	1.05	1.02	1.01	0.744
HCC-827	1.06	1.04	1.05	1.05	0.738	0.165	0.97	0.957	0.946	1.05	0.979
HOP-62	1.02	0.985	0.925	0.791	0.477	0.076	1.01	0.985	0.889	1.02	1.05
IA-LM	0.871	0.991	0.833	0.817	0.0932	0.0256	0.93	0.935	0.854	0.625	0.203
LC-2-ad	0.877	0.815	0.99	1.01	0.257	0.198	0.988	0.988	0.81	0.896	0.564

Cell Line	relative viability (Bortezomib; 0.0002 µM)	relative viability (Bortezomib; 0.000632 µM)	relative viability (Bortezomib; 0.002 µM)	relative viability (Bortezomib; 0.002 µM, anchor plate)	relative viability (Bortezomib; 0.006325 µM)	relative viability (Bortezomib; 0.02 µM)	relative viability (Obatoclax; 0.01 µM)	relative viability (Obatoclax; 0.03162 µM)	relative viability (Obatoclax; 0.1 µM)	relative viability (Obatoclax; 0.3162 µM)	relative viability (Obatoclax; 1 µM)
LCLC-97TM1	0.943	0.729	1.08	0.744	0.439	0.118	0.988	0.801	1.31	0.856	0.908
LCLC-103H	0.982	0.94	1.01	1.05	0.92	0.278	0.978	0.894	0.926	0.965	1.08
LK-2	0.841	0.89	0.647		0.209	0.182	1.03	1.01	1.17	0.932	1.11
LOU-NH91	0.828	0.825	0.497	0.518	0.307	0.365	0.974	0.932	0.68	0.853	0.854
LU99A		0.737	1.03	1.14	0.797	0.303	0.925	0.963	0.622	0.922	0.364
LXF-289	0.987	0.999	1.04	0.994	0.185	0.0884	0.97	1.03	0.989	0.982	0.951
NCI-H23	0.777	0.72	0.995	1.09	0.294	0.134	1.01	0.853	0.832	0.761	0.389
NCI-H322M	0.922		0.918	1.24	0.458	0.421	0.975	0.783	1.16	1	1.01
NCI-H358	0.904	0.675	0.874		0.131	0.162	0.923	0.911	0.833	0.623	0.319
NCI-H441	0.936	0.964	0.575	0.555	0.132	0.139	1.06	0.91	0.99	0.705	0.463
NCI-H460	0.971	0.97	1.03	1.09	0.542	0.0702	1	0.936	0.882	0.746	0.56
NCI-H520	1.08	0.956	0.654	0.622	0.172	0.169	0.993	0.791	1.07	0.976	0.774
NCI-H522	0.947	0.745	1.02		0.638	0.415	0.951	0.894	0.861	0.876	0.904
NCI-H596	0.918	0.894	0.718	1.05	0.241	0.211	1.01	0.858	0.843	0.691	0.584
NCI-H647	0.865	0.812	0.55	0.962	0.0435	0.0339	0.987	0.894	0.68	0.711	0.303
NCI-H661	0.952	0.99	0.989	0.807	0.719	0.228	0.96	0.962	1.02	0.883	0.842
NCI-H727	0.919	1.06	0.897	0.936	0.647	0.171	1.09	0.88	1.14	0.972	0.658
NCI-H838	0.952	0.955	0.974	0.858	0.253	0.161	0.995	0.945	0.78	0.904	0.65
NCI-H1299	0.992	0.955	1.03	1	0.507	0.167	0.989	1.03	0.948	1.01	0.9
NCI-H1355	0.911	0.909	1.08	1.23	0.668	0.152	1.03	0.913	0.918	0.96	0.947
NCI-H1395	0.949	0.866	0.807		0.332	0.293	1	0.846	0.647	0.838	0.68
NCI-H1437	0.928	1	1	0.542	0.272	0.173	0.942	0.93	0.951	0.932	0.816
NCI-H1563	0.971	1	0.826	0.858	0.564	0.442	0.989	0.979	1.08	0.956	0.895
NCI-H1623	0.955	1.01	0.766		0.325	0.273	0.98	0.978	1.24	1.04	0.956

— the supplement of paper PMC10307832
